# Data published in patent publication US11963962B2, “Platelet count-agnostic methods of treating myelofibrosis” (Sierra Oncology, Inc., priority 2018, dated 2024).
# What was measured:
# myelofibrosis [1] = assay: SIMPLIFY-1 Phase 3 trial: total symptom score (TSS) response at week 24; type: in vivo, human; conditions: for TSS Responders / TSS proportion (Wilson 95% CI) / TSS Absolute risk difference (Newcombe 95% CI): SIMPLIFY 1, 24 weeks; for TSS Absolute risk difference (Newcombe 95% CI): MMB vs Control; for TSS response rate: SIMPLIFY 1, week 24
# Procedure: In the SIMPLIFY-1 trial (NCT01969838), the efficacy and safety of MMB versus ruxolitinib (RUX) was studied in patients with myelofibrosis who were naïve to treatment with a JAK inhibitor and a platelet count of ≥50×10^9/L. Patients (N=432) with high risk or intermediate-2 risk or symptomatic intermediate-1 risk myelofibrosis received 24 weeks of treatment with 200 mg MMB once daily or 20 mg RUX twice a day (or per label), after which all patients could receive open-label momelotinib. […] The primary endpoint was a reduction by at least 35% in the spleen volume at 24 weeks compared with baseline.
# (§1) FIG. 8A: SIMPLIFY-1 study of MMB in a first line population previously untreated with JAKi. For SIMPLIFY-1, the goal was non-inferiority over ruxolitinib (RUX) (MMB: N=215 subjects, and RUX: N=217 subjects). FIG. 8B: SIMPLIFY-2 study of second line population of anemic or thrombocytopenic subjects previously treated with RUX (red blood cell (RBC) transfusions on RUX=64%. RUX dose adjustment for: thrombocytopenia=21%; anemia/hematoma=35%). For SIMPLIFY-2, the goal was superiority over best available treatment (BAT) (MMB: N=104 subjects, and BAT: N=52 subjects). In both SIMPLIFY-1 and SIMPLIFY: Primary endpoint: >=35% reduction in spleen volume at 24 weeks. Secondary endpoints: Total symptom score (TSS) response at 24 weeks. Effects on RBC transfusion requirements.
# The SIMPLIFY 1 clinical trial data was reanalyzed for subgroups of subjects having particular baseline platelet counts in the MMB versus RUX arms of the study.
# Patient data was analyzed according to the following baseline platelet count (PLT) subgroups and in particular according to the threshold PLT of 150×10^9/L: 1) PLT<50×10^9/L; 2) 50×10^9/L≤PLT<100×10^9/L; 3) 100×10^9/L≤PLT<150×10^9/L. The reanalyzed data is presented in Table 13 (SIMPLIFY 1). Selected data is also illustrated in the following figures.
# myelofibrosis [2] = assay: SIMPLIFY-2 Phase 3 trial: transfusion independence and TD to TI conversion; type: in vivo, human; conditions: for TD to 12w rolling TI Absolute risk difference (Newcombe 95% CI) / TD to W24 TI Absolute risk difference (Newcombe 95% CI) / TI rate Absolute risk difference (Newcombe 95% CI): MMB vs Control
# Source text: The improved outcome from MMB therapy that results from practicing the subject methods can be manifested as an improvement in one or more clinical endpoints (e.g., as described herein), such as anemia response, in spleen response and/or symptom response. By “anemia response” is meant an increase in the patient's hemoglobin level or a patient who was transfusion dependent becoming transfusion independent. Desirably, a minimum increase in hemoglobin of 0.5 g/dL, such as 1.0 g/dL 1.5 g/dL or 2.0 g/dL lasting a minimum of 8 weeks is achieved, which is the level of improvement specified in the International Working Group (IWG) consensus criteria. However, smaller, but still medically significant, increases in hemoglobin are also considered to be within the term “anemia response”. “Transfusion independence” is an anemia endpoint and refers to a subject who required no RBC transfusions over a 12 week period and had no hemoglobin levels less than 8 g/dL to 8.5 g/dL over the 12 week period. In some embodiments, the 12 week period of transfusion independence is the terminal 12 weeks of a 24 week study period. By red blood cell (RBC) transfusion independence rate at week 24 of a study is meant the proportion of subjects who were transfusion independent at week 24, excluding cases associated with clinically overt bleeding.
# In the SIMPLIFY-2 trial (NCT02101268), the efficacy and safety of MMB was studied in anemic or thrombocytopenic subjects with myelofibrosis who were previously treated with ruxolitinib (RUX). […] Specifically, anemic or thrombocytopenic myelofibrosis patients who had and were previously treated with (RUX) (for at least 28 days) were studied over 24 weeks for response to MMB versus best available treatment (BAT), primarily RUX (89% of patients) but alternatively no treatment or other standard interventions, after which period all patients could receive extended MMB treatment. Previously treated RUX patients who either required red blood cell transfusions or RUX dose reduction with grade 3 thrombocytopenia, anemia, and/or bleeding at grade 3 or worse, with palpable spleen of at least 5 cm and without grade 2 or greater peripheral neuropathy were included in the trial. There was no lower limit for the required baseline platelet count. The primary endpoint was a reduction by at least 35% in the spleen volume at 24 weeks compared with baseline.
# as §1
# The SIMPLIFY 2 clinical trial data was reanalyzed for subgroups of subjects having particular baseline platelet counts in the MMB versus BAT arms of the study.
# Patient data was analyzed according to the following baseline platelet count (PLT) subgroups and in particular according to a threshold PLT of 150×10^9/L: 1) PLT<50×10^9/L; 2) 50×10^9/L≤PLT<100×10^9/L; 3) 100×10^9/L≤PLT<150×10^9/L. The reanalyzed data is presented in Table 14 (SIMPLIFY 2).
# [3] = SIMPLIFY 2, 50 ≤ PLT < 100 ×10^9/L
# [4] = SIMPLIFY 2, 100 ≤ PLT < 150 ×10^9/L
# [5] = SIMPLIFY-2, switch from Transfusion Dependent to Independent
smiles,measurement,setting,value
"Cl.N#CCNC(=O)c1ccc(-c2ccnc(Nc3ccc(N4CCOCC4)cc3)n2)cc1 [MMB, N-(cyanomethyl)-4-(2-(4-morpholinophenylamino)pyrimidin-4-yl)benzamide]",TSS Responders,myelofibrosis [1]; 50 ≤ PLT < 100 ×10^9/L,6
same,TSS proportion (Wilson 95% CI),myelofibrosis [1]; 50 ≤ PLT < 100 ×10^9/L,0.33
same,TSS Absolute risk difference (Newcombe 95% CI),myelofibrosis [1]; 50 ≤ PLT < 100 ×10^9/L,0.12
same,TSS Responders,myelofibrosis [1]; 100 ≤ PLT < 150 ×10^9/L,7
same,TSS proportion (Wilson 95% CI),myelofibrosis [1]; 100 ≤ PLT < 150 ×10^9/L,0.24
same,TSS Absolute risk difference (Newcombe 95% CI),myelofibrosis [1]; 100 ≤ PLT < 150 ×10^9/L,−0.15
same,TSS Responders,myelofibrosis [1]; ITT,60
same,TSS proportion (Wilson 95% CI),myelofibrosis [1]; ITT,0.28
same,TSS Absolute risk difference (Newcombe 95% CI),myelofibrosis [1]; ITT,−0.13
same,TSS response rate,"myelofibrosis [1]; ITT, all patients",28%
same,TSS response rate,"myelofibrosis [1]; ITT, platelets 50-100 (subgroup 2)",33%
same,TSS response rate,"myelofibrosis [1]; ITT, platelets 100-150 (subgroup 3)",24%
same,TSS response rate,"myelofibrosis [1]; baseline TSS ≥ 6, all patients",33%
same,TSS response rate,"myelofibrosis [1]; baseline TSS ≥ 6, platelets 50-100 (subgroup 2)",36%
same,TSS response rate,"myelofibrosis [1]; baseline TSS ≥ 6, platelets 100-150 (subgroup 3)",32%
same,TSS response rate,"myelofibrosis [1]; baseline TSS ≥ 10, all patients",33%
same,TSS response rate,"myelofibrosis [1]; baseline TSS ≥ 10, platelets 50-100 (subgroup 2)",36%
same,TSS response rate,"myelofibrosis [1]; baseline TSS ≥ 10, platelets 100-150 (subgroup 3)",32%
same,Total Symptom Score (TSS) response,"myelofibrosis [1]; SIMPLIFY-1, overall",28.4%
same,TSS Noninferior Proportion Difference,"myelofibrosis [1]; SIMPLIFY-1, MMB vs RUX","0.00 (−0.08, 0.08)"
same,patients TI at week 24,myelofibrosis [2]; SIMPLIFY 2,43%
same,transfusion dependent (TD) patients at baseline who were TI at week 24,myelofibrosis [2]; SIMPLIFY 2,32.8%
same,TD to 12w rolling TI Responders,myelofibrosis [2]; [3],7
same,TD to 12w rolling TI proportion (Wilson 95% CI),myelofibrosis [2]; [3],0.54
same,TD to W24 TI Responders,myelofibrosis [2]; [3],6
same,TD to W24 TI proportion (Wilson 95% CI),myelofibrosis [2]; [3],0.46
same,TI rate Responders,myelofibrosis [2]; [3],18
same,TI rate proportion (Wilson 95% CI),myelofibrosis [2]; [3],0.55
same,TD to 12w rolling TI Absolute risk difference (Newcombe 95% CI),myelofibrosis [2]; [3],0.27
same,TD to W24 TI Absolute risk difference (Newcombe 95% CI),myelofibrosis [2]; [3],0.37
same,TI rate Absolute risk difference (Newcombe 95% CI),myelofibrosis [2]; [3],0.15
same,TD to 12w rolling TI Responders,myelofibrosis [2]; [4],3
same,TD to 12w rolling TI proportion (Wilson 95% CI),myelofibrosis [2]; [4],0.23
same,TD to W24 TI Responders,myelofibrosis [2]; [4],4
same,TD to W24 TI proportion (Wilson 95% CI),myelofibrosis [2]; [4],0.31
same,TI rate Responders,myelofibrosis [2]; [4],10
same,TI rate proportion (Wilson 95% CI),myelofibrosis [2]; [4],0.42
same,TD to 12w rolling TI Absolute risk difference (Newcombe 95% CI),myelofibrosis [2]; [4],0.03
same,TD to W24 TI Absolute risk difference (Newcombe 95% CI),myelofibrosis [2]; [4],0.31
same,TI rate Absolute risk difference (Newcombe 95% CI),myelofibrosis [2]; [4],0.42
same,TD to 12w rolling TI Responders,"myelofibrosis [2]; SIMPLIFY 2, ITT",24
same,TD to 12w rolling TI proportion (Wilson 95% CI),"myelofibrosis [2]; SIMPLIFY 2, ITT",0.41
same,TD to W24 TI Responders,"myelofibrosis [2]; SIMPLIFY 2, ITT",19
same,TD to W24 TI proportion (Wilson 95% CI),"myelofibrosis [2]; SIMPLIFY 2, ITT",0.33
same,TI rate Responders,"myelofibrosis [2]; SIMPLIFY 2, ITT",45
same,TI rate proportion (Wilson 95% CI),"myelofibrosis [2]; SIMPLIFY 2, ITT",0.43
same,TD to 12w rolling TI Absolute risk difference (Newcombe 95% CI),"myelofibrosis [2]; SIMPLIFY 2, ITT",0.23
same,TD to W24 TI Absolute risk difference (Newcombe 95% CI),"myelofibrosis [2]; SIMPLIFY 2, ITT",0.29
same,TI rate Absolute risk difference (Newcombe 95% CI),"myelofibrosis [2]; SIMPLIFY 2, ITT",0.22
same,TD to 12w rolling TI Responders,"myelofibrosis [2]; SIMPLIFY 2, PLT < 50 ×10^9/L",3
same,TD to 12w rolling TI proportion (Wilson 95% CI),"myelofibrosis [2]; SIMPLIFY 2, PLT < 50 ×10^9/L",0.50
same,TD to W24 TI Responders,"myelofibrosis [2]; SIMPLIFY 2, PLT < 50 ×10^9/L",2
same,TD to W24 TI proportion (Wilson 95% CI),"myelofibrosis [2]; SIMPLIFY 2, PLT < 50 ×10^9/L",0.33
same,TI rate Responders,"myelofibrosis [2]; SIMPLIFY 2, PLT < 50 ×10^9/L",2
same,TI rate proportion (Wilson 95% CI),"myelofibrosis [2]; SIMPLIFY 2, PLT < 50 ×10^9/L",0.22
same,TD to 12w rolling TI Absolute risk difference (Newcombe 95% CI),"myelofibrosis [2]; SIMPLIFY 2, PLT < 50 ×10^9/L",0.50
same,TD to W24 TI Absolute risk difference (Newcombe 95% CI),"myelofibrosis [2]; SIMPLIFY 2, PLT < 50 ×10^9/L",0.33
same,TI rate Absolute risk difference (Newcombe 95% CI),"myelofibrosis [2]; SIMPLIFY 2, PLT < 50 ×10^9/L",0.22
same,transfusion dependence to independence conversion rate at week 24,"myelofibrosis [2]; SIMPLIFY 2, baseline platelet count subgroup 3 (100 to 150×10^9/L)",46%
same,≥8 week transfusion independence rate,myelofibrosis [2]; [5],46.6%
same,≥12 week transfusion independence rate,myelofibrosis [2]; [5],46.6%
